“Also recorded” adds a separate entry of the source. Where no end group is shown, it is not given here.
Columns and labels:
[1] = system: M1 and M2 macrophages; assay: M1/M2 macrophage ratio in skin after 10-day intraperitoneal DSCG; assay type: in vivo, mice; settings: measured ten days after treatment completion
Procedure: The number of HLA-DR^+/CD68^+ (M1−) and CD206/CD68^+ (M2−) macrophages in the skin of DM patients and non-DM subjects were evaluated by immunofluorescence following previously defined methods. See e.g., J Peripher Nery Syst 2008; 13:218-27, Handbook of clinical neurology 2013; 115:115-36, Immunol Rev 2007; 217:65-78, Proc Natl Acad Sci USA 2006; 103:7759-64, and Nature 1982; 297:229-31. […] The gene expression of M1-associated pro-inflammatory cytokines, such as TNF-α (FIG. 4, panel a) and IL-1β (FIG. 4, panel b), was also elevated in the foot skin of diabetes mellitus patients, whereas the M2-associated anti-inflammatory cytokine IL-10 was reduced (FIG. 4, panel c).
Using the same methods as in the human samples described above, an increased M1/M2 ratio in C57BL/6J STZ-DM mice was observed. […] Both non-DM and STZ-DM KO mice and their normal littermates were tested.
The effect of a 10-day disodium cromoglycate (DSCG) intraperitoneal administration was evaluated in non-DM and STZ-DM C57B16 mice that were also tested for their wound healing capacity.

[2] = system: mast cells (MC); assay: Toluidine blue count of degranulated mast cells in dorsal skin biopsies of STZ-DM mice; assay type: in vivo; settings: STZ-DM C57Bl6 mice, 8-weeks DM, ten days intraperitoneal treatment
Procedure: The number of intact or non-degranulated and degranulated MC in dorsal skin biopsies from non-DM and STZ-DM C57B16 mice with 8-weeks DM were evaluated by toluidine blue staining. Sections were stained metachromatically with 0.1% toluidine blue, pH 2 (cytoplasmic granules appear purple on a blue background). […] See e.g., J Peripher Nery Syst 2008; 13:218-27, Handbook of clinical neurology 2013; 115:115-36, Immunol Rev 2007; 217:65-78, Proc Natl Acad Sci USA 2006; 103:7759-64, and Nature 1982; 297:229-31. Non-DM and STZ-DM mice were also treated for ten days intraperitoneally with the MC stabilizer disodium cromoglycate (DSCG). […] However, the number of extensively degranulated MC was increased whereas the number of non-degranulated cells was reduced in STZ-DM mice compared to the non-DM controls.

[3] = system: intraepidermal nerve fibers; assay: Intraepidermal nerve fiber density (IENFD) in normal skin adjacent to wounds; assay type: in vivo, mice
Procedure: In a blinded mode, the IENFD in normal skin areas adjacent to wounds in non-DM and DM not-treated and treated with topical SP application for a 10-day period as described above (FIGS. 13 and 14) was evaluated. […] Similar results were found in preliminary studies that evaluated the effect of MC stabilization with DSCG. More specifically, DSCG treatment in two DM mice tended to have a beneficial effect in IENFD (151±55 fibers/mm) compared to four non-treated DM mice (55±17, p<0.05). Initial observations in TAC1KO mice also indicated reduced IENFD (28±12, n=2 mice) that improved in a similar way as with the previous experiments following SP treatment (41±16, n=2).

[4] = system: 6 mm excisional wounds; assay: Daily topical SP in 6 mm excisional wounds: IL-6 expression and M1/M2 ratio; assay type: in vivo, mice
From the text: Daily topical Substance P (SP) application in 6 mm excisional wounds created at the back of non-DM and STZ-DM mice increased the IL-6 expression and M1/M2 ratio three days after wounding, imitating the acute inflammatory phase of wound healing in acute wounds (FIG. 12). However, at Day-10, SP reduced both these inflammatory factors in STZ-DM mice, which was increased when compared to non-DM mice.

[5] = system: wounds; assay: Topical wound SP treatment in MC deficient mice (wound healing); assay type: in vivo; settings: compared with WT mice
From the text: Combined topical treatment with SP and an MC stabilization agent should have an additive, if not synergistic, effect in preventing and reversing SFN.

[6] = STZ-DM mice, Day-10, listed as SP
[7] = non-DM and STZ-DM mice, three days after wounding
[8] = non-DM and STZ-DM mice, three days after wounding, listed as SP

Compound	M1/M2 macrophage ratio ([1]; STZ-DM C57Bl6 mice)	M1/M2 macrophage ratio ([1]; non-DM C57Bl6 mice)	number of degranulated MC in skin [2]	IENFD ([3]; DM mice treated with DSCG (two mice), preliminary study, non-treated DM 55±17) [fibers/mm]	IL-6 expression in wounds [4, 6]	M1/M2 ratio in wounds [4, 6]	IL-6 expression in wounds [4, 7]	M1/M2 ratio in wounds [4, 7]	IL-6 expression in wounds [4, 8]	M1/M2 ratio in wounds [4, 8]	effect on wound healing [5]	IENFD ([3]; DM mice, topical application for 10 days, periwound normal skin, listed as SP)	IENFD ([3]; TAC1KO mice after SP treatment (n=2), initial observations, untreated 28±12) [fibers/mm]	IENFD ([3]; non-DM mice, topical application for 10 days, periwound normal skin, listed as SP)
O=C([O-])c1cc(=O)c2c(OCC(O)COc3cccc4oc(C(=O)[O-])cc(=O)c34)cccc2o1.[Na+].[Na+] [DSCG, disodium cromoglycate]	drastically reduces it in STZ-DM to normal levels; also recorded: reduced the ratio to levels similar to the non-DM mice; also recorded: reduces the M1/M2 ratio to normal levels	no effect	effectively reduce the number of degranulated cells	151±55	–	–	–	–	–	–	–	–	–	–
Substance P (RPKPQQFFGLM-NH2; ends and bridges not checked; UniProt P20366 58-68, looked up) [neuropeptide Substance P (SP), acts through the NK1 receptor]	–	–	–	–	reduced the chronic inflammation	reduced the chronic inflammation	increased	increased	induced an acute inflammatory response	induced an acute inflammatory response	lacks the beneficial effects	returned to normal levels; also recorded: increased IENFD to levels similar to the non-DM mice	41±16	did not affect IENFD; also recorded: no obvious effect
